Experimental data published in the supplement of paper PMC10307832.

Legend:
Assay in all cases: relative viability (nuclei count vs DMSO), 5 days (fraction); higher = more cells survive
[1] = system: NCI-H1793
Procedure, shortened: (§1)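 Lung cancer cell lines in 1536-well plates got either a single drug or a fixed anchor-drug dose together with five library-drug doses (not always all listed) in √10 steps, by pin tool, on the day after seeding. Nuclei were counted after 5 days, and relative viability is the treated-to-vehicle ratio of nuclei counts. Values are medians of duplicate plates.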

[2] = system: NCI-H1437
Procedure, shortened: as §1

[3] = system: 201T
Procedure, shortened: as §1

[4] = system: LXF-289
Procedure, shortened: as §1

[5] = system: NCI-H647
Procedure, shortened: as §1

[6] = system: LCLC-103H
Procedure, shortened: as §1

[7] = system: NCI-H1944
Procedure, shortened: as §1

[8] = system: NCI-H1395
Procedure, shortened: as §1

[9] = system: NCI-H2087
Procedure, shortened: as §1

[10] = system: RERF-LC-KJ
Procedure, shortened: as §1

[11] = system: NCI-H2228
Procedure, shortened: as §1

[12] = system: CAL-12T
Procedure, shortened: as §1

[13] = system: NCI-H1650
Procedure, shortened: as §1

[14] = system: NCI-H322M
Procedure, shortened: as §1

[15] = system: SK-LU-1
Procedure, shortened: as §1

[16] = system: NCI-H2405
Procedure, shortened: as §1

[17] = system: HCC-827
Procedure, shortened: as §1

[18] = system: LCLC-97TM1
Procedure, shortened: as §1

[19] = system: NCI-H3122
Procedure, shortened: as §1

[20] = system: NCI-H727
Procedure, shortened: as §1

[21] = system: BEN
Procedure, shortened: as §1

O=c1cc(N2CCOCC2)oc2c(-c3cccc4c3sc3ccccc34)cccc12 + Cc1cc(Nc2cc(N3CCN(C)CC3)nc(Sc3ccc(NC(=O)C4CC4)cc3)n2)n[nH]1 [Tozasertib] (partner 0.1 µM)
relative viability ([1]; first compound 0.01 µM): 0.352
relative viability ([1]; first compound 0.1 µM): 0.324
relative viability ([1]; first compound 0.3162 µM): 0.312
relative viability ([1]; first compound 1 µM): 0.276
relative viability ([2]; first compound 0.01 µM): 0.351
relative viability ([2]; first compound 0.03162 µM): 0.406
relative viability ([2]; first compound 0.1 µM): 0.428
relative viability ([2]; first compound 0.3162 µM): 0.431
relative viability ([2]; first compound 1 µM): 0.373
relative viability ([3]; first compound 0.01 µM): 0.93
relative viability ([3]; first compound 0.03162 µM): 0.916
relative viability ([3]; first compound 0.1 µM): 0.983
relative viability ([3]; first compound 0.3162 µM): 0.883
relative viability ([3]; first compound 1 µM): 0.881
relative viability ([4]; first compound 0.01 µM): 0.235
relative viability ([4]; first compound 0.03162 µM): 0.216
relative viability ([4]; first compound 0.1 µM): 0.218
relative viability ([4]; first compound 0.3162 µM): 0.174
relative viability ([4]; first compound 1 µM): 0.197
relative viability ([5]; first compound 0.01 µM): 0.369
relative viability ([5]; first compound 0.03162 µM): 0.32
relative viability ([5]; first compound 0.1 µM): 0.262
relative viability ([5]; first compound 0.3162 µM): 0.295
relative viability ([5]; first compound 1 µM): 0.226
relative viability ([6]; first compound 0.01 µM): 0.425
relative viability ([6]; first compound 0.03162 µM): 0.538
relative viability ([6]; first compound 0.1 µM): 0.485
relative viability ([6]; first compound 0.3162 µM): 0.504
relative viability ([6]; first compound 1 µM): 0.457
relative viability ([7]; first compound 0.01 µM): 0.246
relative viability ([7]; first compound 0.03162 µM): 0.249
relative viability ([7]; first compound 0.1 µM): 0.241
relative viability ([7]; first compound 0.3162 µM): 0.245
relative viability ([7]; first compound 1 µM): 0.244
relative viability ([8]; first compound 0.01 µM): 0.78
relative viability ([8]; first compound 0.03162 µM): 0.776
relative viability ([8]; first compound 0.1 µM): 0.659
relative viability ([8]; first compound 0.3162 µM): 0.832
relative viability ([8]; first compound 1 µM): 0.682
relative viability ([9]; first compound 0.01 µM): 0.289
relative viability ([9]; first compound 0.03162 µM): 0.247
relative viability ([9]; first compound 0.1 µM): 0.297
relative viability ([9]; first compound 0.3162 µM): 0.226
relative viability ([9]; first compound 1 µM): 0.25
relative viability ([10]; first compound 0.01 µM): 0.482
relative viability ([10]; first compound 0.03162 µM): 0.576
relative viability ([10]; first compound 0.1 µM): 0.496
relative viability ([10]; first compound 0.3162 µM): 0.429
relative viability ([10]; first compound 1 µM): 0.522
relative viability ([11]; first compound 0.01 µM): 0.331
relative viability ([11]; first compound 0.03162 µM): 0.267
relative viability ([11]; first compound 0.1 µM): 0.217
relative viability ([11]; first compound 0.3162 µM): 0.224
relative viability ([11]; first compound 1 µM): 0.228
relative viability ([12]; first compound 0.01 µM): 0.354
relative viability ([12]; first compound 0.03162 µM): 0.248
relative viability ([12]; first compound 0.1 µM): 0.347
relative viability ([12]; first compound 0.3162 µM): 0.277
relative viability ([12]; first compound 1 µM): 0.288
relative viability ([13]; first compound 0.01 µM): 0.383
relative viability ([13]; first compound 0.03162 µM): 0.416
relative viability ([13]; first compound 0.1 µM): 0.392
relative viability ([13]; first compound 0.3162 µM): 0.373
relative viability ([13]; first compound 1 µM): 0.352
relative viability ([14]; first compound 0.01 µM): 0.49
relative viability ([14]; first compound 0.03162 µM): 0.464
relative viability ([14]; first compound 0.1 µM): 0.485
relative viability ([14]; first compound 0.3162 µM): 0.473
relative viability ([14]; first compound 1 µM): 0.407
relative viability ([15]; first compound 0.01 µM): 0.314
relative viability ([15]; first compound 0.03162 µM): 0.298
relative viability ([15]; first compound 0.1 µM): 0.393
relative viability ([15]; first compound 0.3162 µM): 0.308
relative viability ([15]; first compound 1 µM): 0.329
relative viability ([16]; first compound 0.01 µM): 0.727
relative viability ([16]; first compound 0.03162 µM): 0.753
relative viability ([16]; first compound 0.1 µM): 0.821
relative viability ([16]; first compound 0.3162 µM): 0.734
relative viability ([16]; first compound 1 µM): 0.75
relative viability ([17]; first compound 0.01 µM): 0.386
relative viability ([17]; first compound 0.03162 µM): 0.435
relative viability ([17]; first compound 0.1 µM): 0.431
relative viability ([17]; first compound 0.3162 µM): 0.426
relative viability ([17]; first compound 1 µM): 0.389
relative viability ([18]; first compound 0.01 µM): 0.262
relative viability ([18]; first compound 0.03162 µM): 0.246
relative viability ([18]; first compound 0.1 µM): 0.28
relative viability ([18]; first compound 0.3162 µM): 0.214
relative viability ([18]; first compound 1 µM): 0.219
relative viability ([19]; first compound 0.01 µM): 0.39
relative viability ([19]; first compound 0.03162 µM): 0.418
relative viability ([19]; first compound 0.1 µM): 0.417
relative viability ([19]; first compound 0.3162 µM): 0.378
relative viability ([19]; first compound 1 µM): 0.349
relative viability ([20]; first compound 0.01 µM): 0.607
relative viability ([20]; first compound 0.03162 µM): 0.644
relative viability ([20]; first compound 0.1 µM): 0.673
relative viability ([20]; first compound 0.3162 µM): 0.632
relative viability ([20]; first compound 1 µM): 0.673
relative viability ([21]; first compound 0.01 µM): 0.487
relative viability ([21]; first compound 0.03162 µM): 0.469
relative viability ([21]; first compound 0.1 µM): 0.482
relative viability ([21]; first compound 0.3162 µM): 0.463
relative viability ([21]; first compound 1 µM): 0.531

COc1nc(C)cnc1NS(=O)(=O)c1cccnc1-c1ccc(-c2nnco2)cc1 [Zibotentan] + COc1cc2c(Oc3ccc(NC(=O)C4(C(=O)Nc5ccc(F)cc5)CC4)cc3F)ccnc2cc1OCCCN1CCOCC1 [Foretinib] (partner 0.25 µM)
relative viability ([1]; first compound 0.08 µM): 0.993
relative viability ([1]; first compound 0.253 µM): 0.721
relative viability ([1]; first compound 0.8 µM): 0.546
relative viability ([1]; first compound 2.53 µM): 0.808
relative viability ([2]; first compound 0.08 µM): 1.27
relative viability ([2]; first compound 0.253 µM): 1.18
relative viability ([2]; first compound 0.8 µM): 1.26
relative viability ([2]; first compound 2.53 µM): 1.26
relative viability ([3]; first compound 0.08 µM): 1.16
relative viability ([3]; first compound 0.253 µM): 0.956
relative viability ([3]; first compound 0.8 µM): 1.04
relative viability ([3]; first compound 2.53 µM): 1.15
relative viability ([4]; first compound 0.08 µM): 0.965
relative viability ([4]; first compound 0.253 µM): 0.95
relative viability ([4]; first compound 0.8 µM): 1.05
relative viability ([4]; first compound 2.53 µM): 0.954
relative viability ([5]; first compound 0.08 µM): 1.13
relative viability ([5]; first compound 0.253 µM): 0.996
relative viability ([5]; first compound 0.8 µM): 1.06
relative viability ([5]; first compound 2.53 µM): 1.29
relative viability ([6]; first compound 0.08 µM): 0.928
relative viability ([6]; first compound 0.253 µM): 0.886
relative viability ([6]; first compound 0.8 µM): 0.797
relative viability ([6]; first compound 2.53 µM): 0.838
relative viability ([7]; first compound 0.08 µM): 1.02
relative viability ([7]; first compound 0.253 µM): 0.806
relative viability ([7]; first compound 0.8 µM): 0.898
relative viability ([7]; first compound 2.53 µM): 0.908
relative viability ([8]; first compound 0.08 µM): 1.02
relative viability ([8]; first compound 0.253 µM): 1.07
relative viability ([8]; first compound 0.8 µM): 1.04
relative viability ([8]; first compound 2.53 µM): 0.941
relative viability ([9]; first compound 0.08 µM): 1.22
relative viability ([9]; first compound 0.253 µM): 1.04
relative viability ([9]; first compound 0.8 µM): 1.16
relative viability ([9]; first compound 2.53 µM): 1.04
relative viability ([10]; first compound 0.08 µM): 0.836
relative viability ([10]; first compound 0.253 µM): 0.885
relative viability ([10]; first compound 0.8 µM): 0.809
relative viability ([10]; first compound 2.53 µM): 0.849
relative viability ([11]; first compound 0.08 µM): 0.714
relative viability ([11]; first compound 0.253 µM): 0.819
relative viability ([11]; first compound 0.8 µM): 0.889
relative viability ([11]; first compound 2.53 µM): 0.801
relative viability ([12]; first compound 0.08 µM): 1.21
relative viability ([12]; first compound 0.253 µM): 0.923
relative viability ([12]; first compound 0.8 µM): 1.13
relative viability ([12]; first compound 2.53 µM): 1.12
relative viability ([13]; first compound 0.08 µM): 1.04
relative viability ([13]; first compound 0.8 µM): 1.29
relative viability ([13]; first compound 2.53 µM): 1.28
relative viability ([14]; first compound 0.08 µM): 1.03
relative viability ([14]; first compound 0.253 µM): 0.782
relative viability ([14]; first compound 0.8 µM): 0.98
relative viability ([14]; first compound 2.53 µM): 1.02
relative viability ([15]; first compound 0.08 µM): 0.842
relative viability ([15]; first compound 0.253 µM): 0.873
relative viability ([15]; first compound 0.8 µM): 0.855
relative viability ([15]; first compound 2.53 µM): 0.827
relative viability ([16]; first compound 0.08 µM): 1.1
relative viability ([16]; first compound 0.253 µM): 1.02
relative viability ([16]; first compound 0.8 µM): 1.04
relative viability ([16]; first compound 2.53 µM): 1.05
relative viability ([17]; first compound 0.08 µM): 1.06
relative viability ([17]; first compound 0.253 µM): 1.01
relative viability ([17]; first compound 0.8 µM): 1.11
relative viability ([17]; first compound 2.53 µM): 1.09
relative viability ([18]; first compound 0.08 µM): 1.01
relative viability ([18]; first compound 0.253 µM): 0.891
relative viability ([18]; first compound 0.8 µM): 1
relative viability ([18]; first compound 2.53 µM): 0.926
relative viability ([19]; first compound 0.08 µM): 1.02
relative viability ([19]; first compound 0.253 µM): 0.975
relative viability ([19]; first compound 0.8 µM): 0.983
relative viability ([19]; first compound 2.53 µM): 1.02
relative viability ([20]; first compound 0.08 µM): 1.07
relative viability ([20]; first compound 0.253 µM): 0.862
relative viability ([20]; first compound 0.8 µM): 0.893
relative viability ([20]; first compound 2.53 µM): 0.811
relative viability ([21]; first compound 0.08 µM): 0.739
relative viability ([21]; first compound 0.253 µM): 0.475
relative viability ([21]; first compound 0.8 µM): 0.819
relative viability ([21]; first compound 2.53 µM): 0.639
